Measurements reported in patent US20090124817A1 (The Industry & Academic Cooperation in Chungnam National …, priority 2007, published 2009).

How the values were obtained:
[1] = Specific surface area by gas adsorption (BET); format: physicochemical; conditions: BET equation
Procedure: (§1) The particle size and particle size distribution of samples were determined by dynamic light scattering (DLS) using electrophoretic light scattering spectrophotometer (ELS-8000, Otsuka Electronics, Japan) at a fixed angle of 90° and at room temperature. The samples were dispersed in mineral oil (Macrol 52, Exxon Mobil Co., USA) and sonicated before measurement. The particle size and particle size distribution of samples were also determined with a Sympatec laser diffraction analyzer (HELOS/RODOS, Clausthal-Zellerfeld, Germany) consisted of a laser sensor HELOS and a RODOS dry-powder air-dispersion system. The specific surface area was determined using the gas adsorption method. Calculation is based on the BET equation. Surface Area Analyzer ASAP 2010 (Micromeritics Instrument Corporation, USA) was used.

[2] = Particle size by dynamic light scattering / laser diffraction; format: physicochemical
Procedure: as §1

[3] = DLS, dispersed in mineral oil, room temperature

CC(C)c1c(C(=O)Nc2ccccc2)c(-c2ccccc2)c(-c2ccc(F)cc2)n1CC[C@@H](O)C[C@@H](O)CC(=O)[O-].CC(C)c1c(C(=O)Nc2ccccc2)c(-c2ccccc2)c(-c2ccc(F)cc2)n1CC[C@@H](O)C[C@@H](O)CC(=O)[O-].[Ca+2] [Comparative Example 1, atorvastatin calcium, reference compound]
Specific surface area [1]: 0.95 m^2/g | Mean particle size ([2]; DLS / laser diffraction): 7.31 μm

CC(C)c1c(C(=O)Nc2ccccc2)c(-c2ccccc2)c(-c2ccc(F)cc2)n1CC[C@@H](O)C[C@@H](O)CC(=O)[O-].CC(C)c1c(C(=O)Nc2ccccc2)c(-c2ccccc2)c(-c2ccc(F)cc2)n1CC[C@@H](O)C[C@@H](O)CC(=O)[O-].[Ca+2] [Example 2, atorvastatin calcium]
Specific surface area [1]: 90.28 m^2/g | Mean particle size [2, 3]: 179 nm

CC(C)c1c(C(=O)Nc2ccccc2)c(-c2ccccc2)c(-c2ccc(F)cc2)n1CC[C@@H](O)C[C@@H](O)CC(=O)[O-].CC(C)c1c(C(=O)Nc2ccccc2)c(-c2ccccc2)c(-c2ccc(F)cc2)n1CC[C@@H](O)C[C@@H](O)CC(=O)[O-].[Ca+2] [Example 9, atorvastatin calcium]
Specific surface area [1]: 47.82 m^2/g | Mean particle size [2, 3]: 265 nm

CC(C)c1c(C(=O)Nc2ccccc2)c(-c2ccccc2)c(-c2ccc(F)cc2)n1CC[C@@H](O)C[C@@H](O)CC(=O)[O-].CC(C)c1c(C(=O)Nc2ccccc2)c(-c2ccccc2)c(-c2ccc(F)cc2)n1CC[C@@H](O)C[C@@H](O)CC(=O)[O-].[Ca+2] [Example 10, atorvastatin calcium]
Specific surface area [1]: 30.88 m^2/g | Mean particle size [2, 3]: 727 nm

CC(C)c1c(C(=O)Nc2ccccc2)c(-c2ccccc2)c(-c2ccc(F)cc2)n1CC[C@@H](O)C[C@@H](O)CC(=O)[O-].CC(C)c1c(C(=O)Nc2ccccc2)c(-c2ccccc2)c(-c2ccc(F)cc2)n1CC[C@@H](O)C[C@@H](O)CC(=O)[O-].[Ca+2] [Example 18, atorvastatin calcium]
Specific surface area [1]: 79.78 m^2/g | Mean particle size [2, 3]: 155 nm

CC(C)c1c(C(=O)Nc2ccccc2)c(-c2ccccc2)c(-c2ccc(F)cc2)n1CC[C@@H](O)C[C@@H](O)CC(=O)[O-].CC(C)c1c(C(=O)Nc2ccccc2)c(-c2ccccc2)c(-c2ccc(F)cc2)n1CC[C@@H](O)C[C@@H](O)CC(=O)[O-].[Ca+2] [Example 25, atorvastatin calcium]
Specific surface area [1]: 120.35 m^2/g | Mean particle size [2, 3]: 65 nm

CC(C)c1c(C(=O)Nc2ccccc2)c(-c2ccccc2)c(-c2ccc(F)cc2)n1CC[C@@H](O)C[C@@H](O)CC(=O)[O-].CC(C)c1c(C(=O)Nc2ccccc2)c(-c2ccccc2)c(-c2ccc(F)cc2)n1CC[C@@H](O)C[C@@H](O)CC(=O)[O-].[Ca+2] [Starting material, atorvastatin calcium, reference compound]
Specific surface area [1]: 14.56 m^2/g | Mean particle size ([2]; DLS / laser diffraction): 3.87 μm
